Legend:
[1] = test system: HT29 cells; assay: HT29 cell necroptosis assay (TNF-α/Smac mimetic/z-VAD induced necrosis, viability); format: cell-based, human; details: 10 μM test compound pretreated one hour, TNF-α (40 ng/mL), Smacmimetic (100 nM), z-VAD (20 μM) for 48 hours
Protocol: Biological in Vitro HT29 Cell Assay.
(§1) The efficacies of RIP1 inhibitors were tested in vitro using human colon cancer TH29 cells in a necroptosis assay. For the assay, Cells were added to 96-well plates and then 10 μM of the test compound was pretreated for one hour. Then the cells were treated with TNF-α (40 ng/mL), Smacmimetic (100 nM) and z-VAD (20 μM) for 48 hours, and the viability was quantified. DMSO pretreatment group was negative control, Nec-1 pretreatment group was positive control.

[2] = test system: L929 cells; assay: L929 cell necroptosis assay (same protocol as the HT29 cell assay); format: cell-based, mouse; details: 10 μM test compound, protocol as HT29 assay
Protocol: as §1, with “For the assay, Cells were added to 96-well plates and then 10 μM of the test compound was pretreated for one hour.” left out
Biological In Vitro L929 Cell Assay.
Mouse L-cells NCTC 929 (L929) were acquired from ATCC (cat. no. ATCC CCL-1) and banked in liquid nitrogen. The assay protocol was the same as described for the HT29 cell assay.

[3] = test system: HT29 cells; assay: HT29 cell necroptosis assay (TNF-α/Smac mimetic/z-VAD induced necrosis, viability); format: cell-based, human; details: Homo sapiens, HT-29, HT29 cells, TNF-α/Smacmimetic/z-VAD induced necrosis

For `CC(=O)Nc1nc2ccc(-c3cc(NC(=O)Cc4ccccc4Cl)ccn3)cc2s1` [Compound A29], the “HT29 Inhibition (10 μM)” value [1] was 81% and the “L929 Inhibition (10 μM)” value [2] was 45%.
In the case of `COc1ncc(-c2ccc3nc(NC(C)=O)sc3c2)cc1NC(=O)Cc1ccccc1` [Compound A22], the “HT29 Inhibition (10 μM)” value [1] is reported as 66% and the “L929 Inhibition (10 μM)” value [2] is reported as 42%.
`CC(=O)Nc1nc2ccc(-c3cnc(C)c(NC(=O)CC4CCCCC4)c3)cc2s1` [Compound A25] was tested, and the IC50 ([3]; values in nM) was 255 nM and the “HT29 Inhibition (10 μM)” value [1] was 68%.
`CC(=O)Nc1nc2ccc(-c3cncc(NC(=O)Cc4ccc(Cl)cc4)c3)cc2s1` [Compound A15] was tested, and the “HT29 Inhibition (10 μM)” value [1] was 95% and the “L929 Inhibition (10 μM)” value [2] was 87%.
`CC(=O)Nc1nc2ccc(-c3cccc(NC(=O)Cc4ccccc4Cl)c3)cc2s1` [Compound A28] was tested, and the “HT29 Inhibition (10 μM)” value [1] was 34% and the “L929 Inhibition (10 μM)” value [2] was 45%.
With `CC(=O)Nc1nc2ccc(-c3cncc(NC(=O)c4cccc(F)c4)c3)cc2s1` [Compound A5] the “HT29 Inhibition (10 μM)” value [1] was 50% and the “L929 Inhibition (10 μM)” value [2] was 90%.
For `CC(=O)Nc1nc2ccc(-c3cncc(NC(=O)Cc4cccc(Cl)c4)c3)cc2s1` [Compound A14], the “HT29 Inhibition (10 μM)” value [1] was 71% and the “L929 Inhibition (10 μM)” value [2] was 95%.
With `CC(=O)Nc1nc2ccc(-c3cnc(C)c(NC(=O)CC4CCCC4)c3)cc2s1` [Compound A43] the IC50 ([3]; values in nM) was 431 nM and the “HT29 Inhibition (10 μM)” value [1] was 78%.
In the case of `Cc1ncc(-c2ccc3nc(NC(=O)CCCCCNC(=O)OC(C)(C)C)sc3c2)cc1NC(=O)Cc1ccccc1` [Compound A31], the IC50 ([3]; values given in μM) is reported as 3400 nM and the “HT29 Inhibition (10 μM)” value [1] is reported as 87%.
`CC(=O)Nc1nc2ccc(-c3cccc(NC(=O)Cc4ccccc4)c3)cc2s1` [Compound A20] was tested, and the “HT29 Inhibition (10 μM)” value [1] was 11% and the “L929 Inhibition (10 μM)” value [2] was 69%.
`CC(=O)Nc1nc2ccc(-c3cncc(NC(=O)Cc4ccccc4F)c3)cc2s1` [Compound A16] was tested, and the “HT29 Inhibition (10 μM)” value [1] was 36% and the “L929 Inhibition (10 μM)” value [2] was 86%.
For `CC(=O)Nc1nc2ccc(-c3cnc(Cl)c(NC(=O)Cc4ccc(OCCOCCNC(=O)OC(C)(C)C)cc4)c3)cc2s1` [Compound A26], the “HT29 Inhibition (10 μM)” value [1] was 30% and the “L929 Inhibition (10 μM)” value [2] was 42%.
For `CC(=O)Nc1nc2ccc(-c3cnc(Cl)c(NC(=O)c4ccncc4)c3)cc2s1` [Compound A4], the “HT29 Inhibition (10 μM)” value [1] was 25% and the “L929 Inhibition (10 μM)” value [2] was 1%.
In the case of `Nc1nc2ccc(-c3cnc(Cl)c(NC(=O)c4cccc(F)c4)c3)cc2s1` [Compound A1], the “HT29 Inhibition (10 μM)” value [1] is reported as 112% and the “L929 Inhibition (10 μM)” value [2] is reported as 48%.
In the case of `CC(=O)Nc1nc2ccc(-c3cnc(Cl)c(NC(=O)c4cccnc4)c3)cc2s1` [Compound A3], the “HT29 Inhibition (10 μM)” value [1] is reported as 7% and the “L929 Inhibition (10 μM)” value [2] is reported as 1%.
In the case of `CC(=O)Nc1nc2ccc(-c3cncc(NC(=O)Cc4ccc(F)cc4)c3)cc2s1` [Compound A18], the “HT29 Inhibition (10 μM)” value [1] is reported as 24% and the “L929 Inhibition (10 μM)” value [2] is reported as 51%.
`CC(=O)Nc1nc2ccc(-c3ccnc(NC(=O)Cc4ccccc4Cl)c3)cc2s1` [Compound A30] was tested, and the “HT29 Inhibition (10 μM)” value [1] was 38% and the “L929 Inhibition (10 μM)” value [2] was 45%.
With `CC(=O)Nc1nc2ccc(-c3cc(NC(=O)Cc4ccccc4)ccn3)cc2s1` [Compound A19] the “HT29 Inhibition (10 μM)” value [1] was 1% and the “L929 Inhibition (10 μM)” value [2] was 22%.
In the case of `CC(=O)Nc1nc2ccc(-c3cnc(C)c(NC(=O)CC(C)C)c3)cc2s1` [Compound A44], the IC50 ([3]; values given in μM) is reported as 2690 nM and the “HT29 Inhibition (10 μM)” value [1] is reported as 47%.
`CC(=O)Nc1nc2ccc(-c3cc(NC(=O)OC4CCCCC4)c(C)nn3)cc2s1` [Compound A66, Cyclohexyl 6-(2-acetamidobenzo[d]thiazol-6-yl)-3-methylpyridazin-4-ylcarbamate] was tested, and the IC50 ([3]; values in nM) was 247 nM.
For `CC(=O)Nc1nc2ccc(-c3cnc(C)c(NC(=O)CN4CCCCC4)c3)cc2s1` [Compound A40], the IC50 ([3]; values given in μM) was 1100 nM and the “HT29 Inhibition (10 μM)” value [1] was 79%.
With `CC(=O)Nc1nc2ccc(-c3cc(NC(=O)OC4CCCCC4)c(C)cn3)cc2s1` [Compound A51] the IC50 ([3]; values in nM) was 73 nM.
In the case of `CC(=O)Nc1nc2ccc(-c3cnc(Cl)c(NC(=O)Cc4ccc(OCCOCCNC(=O)CCCCCNC(=O)CCCC[C@@H]5SC[C@@H]6NC(=O)N[C@@H]65)cc4)c3)cc2s1` [Compound A27], the “HT29 Inhibition (10 μM)” value [1] is reported as 48% and the “L929 Inhibition (10 μM)” value [2] is reported as 42%.
With `CC(=O)Nc1nc2ccc(-c3cnc(C)c(NC(=O)OC4CCOCC4)c3)cc2s1` [Compound A55] the IC50 ([3]; values in nM) was 253 nM.

From US10815226B2, “Heteroaryl compounds as inhibitors of necrosis, composition and application thereof” (ACCRO BIOSCIENCE INC., priority 2016, dated 2020)
